Measured values: publication PMC5207512, “Inhibition of Helicobacter pylori and Its Associated Urease by Palmatine: Investigation on the Potential Mechanism” (PLoS ONE, 2017)
Values joined by “and” are separate entries in the source; they are usually repeats but may differ in a detail not shown here. Equal entries are not always repeated. Where two headings read alike, the source gives them in different places.

Key:
H. pylori urease (HPU) [1] = biological target: T1, H. pylori urease (HPU) (Helicobacter pylori, UniProt P69996); assay: biochemical; settings: Pal 0.5 mM, thiols 1.25 mM, replicates; for Residual urease activity (percent of control): Fig 4A HPU; for activity at 1250 µM: read-out: Residual urease activity (percent of control), Fig 4A HPU
T1 construct: HPU was prepared as previously described; made in house
Method: (§1) For the protection with thiols-containing compounds, the mixture consisting of 0.25 mg/mL urease (HPU or JBU), 0.5 mM Pal (for both HPU and JBU) and 1.25 mM thiols (DTT, GSH and L-cys) was incubated for 5, 10, 20, and 40 min at 37°C, respectively. The control sample instead of the protectors contained a proper volume of respective buffer.

jack bean urease (JBU) [2] = biological target: T2, jack bean urease (JBU) (Canavalia ensiformis, UniProt P07374); assay: biochemical; settings: Pal 0.5 mM, thiols 1.25 mM, replicates; for Residual urease activity (percent of control): Fig 4B JBU; for activity at 1250 µM: read-out: Residual urease activity (percent of control), Fig 4B JBU
T2 construct: Urease from jack bean (Canavalia ensiformis, JBU); purchased Sigma-Aldrich (St Louis, MO, USA) type III (catalogue number not given)
Method: as §1

H. pylori urease (HPU) [3] = biological target: T1, H. pylori urease (HPU); assay: biochemical; assay type: biochemical; settings: thiols 1.25 mM, Pal 0.5 mM, 20+20 min; for Residual urease activity (percent of control): Fig 5A HPU; for activity at 1250 µM: read-out: Residual urease activity (percent of control), Fig 5A HPU
Method: (§2) The reaction mixture consisted of 0.25 mg/mL HPU or JBU, 0.5 mM Pal (for both HPU and JBU), and 1.25 mM thiols (DTT, GSH, or L-cys) in 20 mM HEPES buffer (pH 7.5). The components of the incubation mixture were mixed according to three procedures: (1) Urease was added to the mixture after a 20-min co-incubation of Pal with thiol. (2) Pal was added to the mixture after a 20-min co-incubation of urease with thiol. (3) Thiols were added to the mixture after a 20-min co-incubation of urease with Pal. The incubation mixture containing all components was incubated for further 20 min and the activity of urease was determined. The experiments were triply performed.

jack bean urease (JBU) [4] = biological target: T2, jack bean urease (JBU); assay: biochemical; assay type: biochemical; settings: thiols 1.25 mM, Pal 0.5 mM, 20+20 min; for Residual urease activity (percent of control): Fig 5B JBU; for activity at 1250 µM: read-out: Residual urease activity (percent of control), Fig 5B JBU
Method: as §2

H. pylori urease (HPU) [5] = biological target: T1, H. pylori urease (HPU); assay: biochemical; assay type: biochemical; settings: for Urease activity: Fig 6A HPU
Method: (§3) The reactivation of Pal-inactivated urease was investigated by DTT application. The preincubation mixture consisted of 0.25 mg/mL HPU or JBU and 0.5 mM Pal in 20 mM HEPES buffer (pH 7.5). Then the mixture was further incubated with 1.25 mM DTT after 20 min. The enzymatic activity of urease was determined before and after the addition of DTT. After a while, aliquots were withdrawn and the urease residual activity was determined. The experiments were repeated three times.

jack bean urease (JBU) [6] = biological target: T2, jack bean urease (JBU); assay: biochemical; assay type: biochemical; settings: for Urease activity: Fig 6B JBU
Method: as §3

H. pylori urease (HPU) [7] = biological target: T1, H. pylori urease (HPU); assay: Urease inhibition test (modified Berthelot method); assay type: biochemical; settings: HPU 0.25 mg/mL; 20 min preincubation 37°C, pH 7.5; read-out: IC50
Method: (§4) HPU was prepared as previously described. The standard urease assay mixture included 150 mM urea in 20 mM HEPES buffer (pH 7.5). After addition of small aliquots of enzyme-containing solution of urease, the assay ran for 20 min. The enzymatic activity was evaluated spectrophotometrically by detecting the ammonia concentration at 595 nm according to the modified Berthelot (phenol-hypochlorite) method. Urease activity was estimated with JBU as a standard, the specific activity of HPU was determined to be 17.0 U/mg. One unit of urease activity was defined as 1 μmol of ammonia released per min at 25°C. The amount of protein was determined by commercial Bradford Protein Assay Kit with BSA as a standard. The amount of ammonia released was decided from a standard curve. The activity of uninhibited urease was defined as the control activity of 100%.
(§5) Reaction mixtures comprising 0.25 mg/mL HPU or JBU and different concentrations of Pal or AHA at the volume ratio of 1:1, were incubated at 37°C in 20 mM HEPES buffer (pH 7.5) in the absence of urea. The reactions were initiated by mixing the urease and the inhibitor. The preincubation mixture was withdrawn at 20 min and immediately transferred into the standard assay mixtures for urease residual activity determination. Inhibition rate (%) was calculated following the formula: I % = (1-activity with inhibitors/activity without inhibitors) × 100%. The IC50 was expressed as the concentration of inhibitor that decreased urease activity by 50% and calculated by plotting the percent of inhibition. The experiments were triply performed.

jack bean urease (JBU) [8] = biological target: T2, jack bean urease (JBU); assay: Urease inhibition test (modified Berthelot method); assay type: biochemical; settings: JBU 0.25 mg/mL; 20 min preincubation 37°C, pH 7.5; read-out: IC50
Method: as §4, §5

[9] = 1.25 mM DTT, control of reactivation assay
[10] = incubation time 5 min, Pal 0.5 mM, DTT 1.25 mM
[11] = incubation time 10 min, Pal 0.5 mM, DTT 1.25 mM
[12] = incubation time 15 min, Pal 0.5 mM, DTT 1.25 mM
[13] = incubation time 20 min, Pal 0.5 mM, DTT 1.25 mM
[14] = incubation time 120 min, DTT added post 20 min

T2 sequence (P07374 whole entry, looked up): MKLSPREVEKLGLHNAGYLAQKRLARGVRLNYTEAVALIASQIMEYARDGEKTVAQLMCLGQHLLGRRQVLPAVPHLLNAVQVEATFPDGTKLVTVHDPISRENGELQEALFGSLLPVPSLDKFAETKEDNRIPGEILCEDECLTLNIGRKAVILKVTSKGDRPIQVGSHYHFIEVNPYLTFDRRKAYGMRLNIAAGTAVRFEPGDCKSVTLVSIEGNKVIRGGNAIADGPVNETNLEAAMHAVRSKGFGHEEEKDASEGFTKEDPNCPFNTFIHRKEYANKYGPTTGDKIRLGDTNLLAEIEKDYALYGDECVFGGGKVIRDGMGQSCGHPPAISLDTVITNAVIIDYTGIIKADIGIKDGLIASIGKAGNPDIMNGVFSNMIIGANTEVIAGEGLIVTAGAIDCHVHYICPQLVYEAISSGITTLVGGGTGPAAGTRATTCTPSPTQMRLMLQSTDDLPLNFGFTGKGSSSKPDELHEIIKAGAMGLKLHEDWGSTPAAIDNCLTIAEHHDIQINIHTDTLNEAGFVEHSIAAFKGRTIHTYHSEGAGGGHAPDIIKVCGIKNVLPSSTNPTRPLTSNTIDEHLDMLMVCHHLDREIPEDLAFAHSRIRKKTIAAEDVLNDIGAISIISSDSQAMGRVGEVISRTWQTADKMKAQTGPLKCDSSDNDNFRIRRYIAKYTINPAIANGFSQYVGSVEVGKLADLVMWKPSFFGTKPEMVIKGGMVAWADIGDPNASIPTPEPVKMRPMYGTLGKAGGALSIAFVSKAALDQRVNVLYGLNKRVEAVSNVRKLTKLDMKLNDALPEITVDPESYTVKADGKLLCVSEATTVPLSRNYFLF
T1 sequence (P14916 whole entry): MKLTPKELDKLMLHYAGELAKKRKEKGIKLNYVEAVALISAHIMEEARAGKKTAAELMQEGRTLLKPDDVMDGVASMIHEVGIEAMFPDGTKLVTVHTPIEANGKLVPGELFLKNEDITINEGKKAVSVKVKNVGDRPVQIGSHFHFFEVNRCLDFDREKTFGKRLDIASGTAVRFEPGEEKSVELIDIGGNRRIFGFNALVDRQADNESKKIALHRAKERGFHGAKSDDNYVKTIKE
T1 sequence (P69996 whole entry): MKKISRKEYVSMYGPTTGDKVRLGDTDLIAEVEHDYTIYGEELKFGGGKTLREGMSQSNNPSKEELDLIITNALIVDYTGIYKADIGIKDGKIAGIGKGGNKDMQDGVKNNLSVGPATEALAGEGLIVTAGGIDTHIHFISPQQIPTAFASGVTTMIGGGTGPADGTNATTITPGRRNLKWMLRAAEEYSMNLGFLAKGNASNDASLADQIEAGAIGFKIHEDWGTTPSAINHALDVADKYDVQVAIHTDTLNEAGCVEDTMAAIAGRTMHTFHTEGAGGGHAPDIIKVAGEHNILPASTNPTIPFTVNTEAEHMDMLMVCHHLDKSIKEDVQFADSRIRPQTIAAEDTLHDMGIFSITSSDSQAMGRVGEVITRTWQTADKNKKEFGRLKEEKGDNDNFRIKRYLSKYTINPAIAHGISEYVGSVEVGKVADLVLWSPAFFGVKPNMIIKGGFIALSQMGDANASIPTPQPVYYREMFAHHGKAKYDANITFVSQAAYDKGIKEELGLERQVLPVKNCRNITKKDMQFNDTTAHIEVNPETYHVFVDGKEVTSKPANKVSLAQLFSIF

In the case of O[C@@H](CS)[C@@H](O)CS (racemic) [DTT, dithiothreithol], the “Residual urease activity (percent of control)” value (H. pylori urease (HPU) [1]; 5 min incubation) is reported as 81.4793% and 82.3893% and 84.6876%, the “Residual urease activity (percent of control)” value (H. pylori urease (HPU) [1]; 10 min incubation) is reported as 90.4823% and 88.7843% and 92.6863% and the “Residual urease activity (percent of control)” value (H. pylori urease (HPU) [1]; 20 min incubation) is reported as 93.6879% and 92.2701% and 94.7893%. The “Residual urease activity (percent of control)” value (H. pylori urease (HPU) [1]; 40 min incubation) was 98.9725% and 95.7934% and 96.4654%, the “Residual urease activity (percent of control)” value (jack bean urease (JBU) [2]; 5 min incubation) was 93.6533% and 90.8565% and 95.5784% and the “Residual urease activity (percent of control)” value (jack bean urease (JBU) [2]; 10 min incubation) was 106.756% and 109.689% and 104.897%. The “Residual urease activity (percent of control)” value (jack bean urease (JBU) [2]; 20 min incubation) was 115.579% and 114.01% and 114.79%, the “Residual urease activity (percent of control)” value (jack bean urease (JBU) [2]; 40 min incubation) was 142.945% and 126.676% and 135.643% and the “Residual urease activity (percent of control)” value (H. pylori urease (HPU) [3]; order (Protector+Pal)+urease) was 93.1647% and 102.135% and 96.7756%. For the same compound, the “Residual urease activity (percent of control)” value (H. pylori urease (HPU) [3]; order (urease+Pal)+Protector) was 108.215% and 111.632% and 112.117%, the “Residual urease activity (percent of control)” value (H. pylori urease (HPU) [3]; order (urease+Protector)+Pal) was 93.9563% and 102.92% and 98.1268% and the “Residual urease activity (percent of control)” value (jack bean urease (JBU) [4]; order (Protector+Pal)+urease) was 164.505% and 163.42% and 167.948%. The “Residual urease activity (percent of control)” value (jack bean urease (JBU) [4]; order (urease+Pal)+Protector) was 156.562% and 141.035% and 115.717%, the “Residual urease activity (percent of control)” value (jack bean urease (JBU) [4]; order (urease+Protector)+Pal) was 175.198% and 170.348% and 183.958% and the “HPU activity with DTT without Pal” value (H. pylori urease (HPU) [5]; [9]) was “ca. 100%”. For the same compound, the Urease activity (H. pylori urease (HPU) [5]; [10]) was 95.491% and 88.7241% and 81.9292%, the Urease activity (H. pylori urease (HPU) [5]; [11]) was 99.0165% and 99.0712% and 98.1423% and the Urease activity (H. pylori urease (HPU) [5]; [12]) was 99.1346% and 97.2572% and 95.4326%. For the same compound, the Urease activity (H. pylori urease (HPU) [5]; [13]) was 97.9325% and 92.9515% and 87.6438%, the Urease activity (H. pylori urease (HPU) [5]; incubation time 40 min, DTT added post 20 min) was 92.9813% and 91.5048% and 89.9013% and the Urease activity (H. pylori urease (HPU) [5]; incubation time 60 min) was 98.0126% and 92.5129% and 87.7924%. For the same compound, the Urease activity (H. pylori urease (HPU) [5]; incubation time 90 min) was 91.4647% and 89.1159% and 85.7645%, the Urease activity (H. pylori urease (HPU) [5]; [14]) was 96.0166% and 88.9974% and 82.2782% and the “JBU activity with DTT without Pal” value (jack bean urease (JBU) [6]; [9]) was “ca. 100%”. For the same compound, the Urease activity (jack bean urease (JBU) [6]; [10]) was 121.742% and 114.981% and 108.343%, the Urease activity (jack bean urease (JBU) [6]; [11]) was 110.236% and 112.928% and 115.246% and the Urease activity (jack bean urease (JBU) [6]; [12]) was 113.236% and 116.183% and 119.514%. The Urease activity (jack bean urease (JBU) [6]; [13]) was 121.141% and 121.265% and 120.209%, the Urease activity (jack bean urease (JBU) [6]; incubation time 25 min) was 120.019% and 120.291% and 121.459% and the Urease activity (jack bean urease (JBU) [6]; incubation time 40 min) was 107.983% and 105.801% and 103.225%. The Urease activity (jack bean urease (JBU) [6]; incubation time 60 min) was 111.088% and 107.798% and 104.326%, the Urease activity (jack bean urease (JBU) [6]; incubation time 90 min) was 107.125% and 104.437% and 101.122% and the Urease activity (jack bean urease (JBU) [6]; [14]) was 112.893% and 110.524% and 108.243%.

Compound CC(=O)NO [AHA, Acetohydroxamic acid] has an IC50 (H. pylori urease (HPU) [7]) of 70 ± 10 µM and an IC50 (jack bean urease (JBU) [8]) of 20 µM.

In the case of N[C@@H](CCC(=O)N[C@@H](CS)C(=O)NCC(=O)O)C(=O)O [GSH, glutathione], the activity at 1250 µM (H. pylori urease (HPU) [1]; 5 min, 5 min incubation) is reported as 72.8%, the activity at 1250 µM (H. pylori urease (HPU) [1]; 10 min, 10 min incubation) is reported as 90.4% and the activity at 1250 µM (H. pylori urease (HPU) [1]; 20 min, 20 min incubation) is reported as 94.7%. For the same compound, the activity at 1250 µM (H. pylori urease (HPU) [1]; 40 min, 40 min incubation) was 97.5%, the activity at 1250 µM (jack bean urease (JBU) [2]; 5 min, 5 min incubation) was 129% and the activity at 1250 µM (jack bean urease (JBU) [2]; 10 min, 10 min incubation) was 130%. For the same compound, the activity at 1250 µM (jack bean urease (JBU) [2]; 20 min, 20 min incubation) was 129%, the activity at 1250 µM (jack bean urease (JBU) [2]; 40 min, 40 min incubation) was 146% and the activity at 1250 µM (H. pylori urease (HPU) [3]; order (Protector+Pal)+urease) was 90.2%. The activity at 1250 µM (H. pylori urease (HPU) [3]; order (urease+Pal)+Protector) was 85.2%, the activity at 1250 µM (H. pylori urease (HPU) [3]; order (urease+Protector)+Pal) was 86.2% and the activity at 1250 µM (jack bean urease (JBU) [4]; order (Protector+Pal)+urease) was 139%. It also gave an activity at 1250 µM (jack bean urease (JBU) [4]; order (urease+Pal)+Protector) of 140%.

For N[C@@H](CS)C(=O)O [L-Cys, L-cysteine], the activity at 1250 µM (H. pylori urease (HPU) [1]; 5 min, 5 min incubation) was 118%, the activity at 1250 µM (H. pylori urease (HPU) [1]; 10 min, 10 min incubation) was 107% and the activity at 1250 µM (H. pylori urease (HPU) [1]; 20 min, 20 min incubation) was 109%. The activity at 1250 µM (H. pylori urease (HPU) [1]; 40 min, 40 min incubation) was 112%, the activity at 1250 µM (jack bean urease (JBU) [2]; 5 min, 5 min incubation) was 102% and the activity at 1250 µM (jack bean urease (JBU) [2]; 10 min, 10 min incubation) was 109%. The activity at 1250 µM (jack bean urease (JBU) [2]; 20 min, 20 min incubation) was 117%, the activity at 1250 µM (jack bean urease (JBU) [2]; 40 min, 40 min incubation) was 150% and the activity at 1250 µM (H. pylori urease (HPU) [3]; order (Protector+Pal)+urease) was 83.2%. The activity at 1250 µM (H. pylori urease (HPU) [3]; order (urease+Pal)+Protector) was 82.4%, the activity at 1250 µM (H. pylori urease (HPU) [3]; order (urease+Protector)+Pal) was 105% and the activity at 1250 µM (jack bean urease (JBU) [4]; order (Protector+Pal)+urease) was 147%. The activity at 1250 µM (jack bean urease (JBU) [4]; order (urease+Protector)+Pal) was 146%.
